Source: patent US4470993A, “Therapeutical use of known 5-aminomethyl oxazolidine-2-one derivatives” (Delalande S.A., priority 1982, dated 1984)

What was measured:
A type monoamine oxidase = experiment: Ex vivo monoamine oxidase inhibition in rat brain homogenate, serotonine substrate; parameters: unit not given here; settings: rats, 5 mg/kg p.o.; for Monoamine oxidase inhibition effect, A Type monoamine oxidase, 8 hours: 8 hours after administration; for Monoamine oxidase inhibition effect, A Type monoamine oxidase, 24 hours: 24 hours after administration; for Monoamine oxidase inhibition effect, A Type monoamine oxidase, max.: maximum effect observed between 30 minutes and 8 hours
Experimental: (§1) This activity has been shown ex vivo on rats to which are orally administered the compounds employed in the invention as a 0.5% suspension in methylcellulose. Then the rats are decapitated at various times (30 mn, 1 hour, 2 hours, 4 hours, 8 hours and 24 hours after the administration). The brains are taken up, weighed and homogeneized and the determination of the monoamine oxidase inhibition effect is carried out by using serotonine (specific substrate of the A type monoamine oxidase) and phenylethylamine (specific substrate of B type monoamine oxidase) according to the method described by J. P. KAN and M. STROLIN-BENEDETTI in Life Sciences 26, 2165 (1980).
(§2) To illustrate the invention, in table below the results thus obtained are given. (The maximum effect is that observed between 30 minutes and 8 hours).

B type monoamine oxidase = experiment: Ex vivo monoamine oxidase inhibition in rat brain homogenate, phenylethylamine substrate; parameters: unit not given here; settings: rats, 5 mg/kg p.o.; for Monoamine oxidase inhibition effect, B Type monoamine oxidase, 8 hours: 8 hours after administration; for Monoamine oxidase inhibition effect, B Type monoamine oxidase, 24 hours: 24 hours after administration; for Monoamine oxidase inhibition effect, B Type monoamine oxidase, max.: maximum effect observed between 30 minutes and 8 hours
Experimental: as §1, §2

[1] = Acute toxicity, oral, in mice (Miller and Tainter); settings: mouse, in vivo, read-out: Acute toxicity LD 50
Experimental: The acute toxicity is determined orally on mice according to the method described by MILLER and TAINTER in Proc. Soc. Exp. Biol. Med. 57, 261 (1944).

| SMILES | Monoamine oxidase inhibition effect, A Type monoamine oxidase, 8 hours (A type monoamine oxidase) | Monoamine oxidase inhibition effect, A Type monoamine oxidase, 24 hours (A type monoamine oxidase) | Monoamine oxidase inhibition effect, A Type monoamine oxidase, max. (A type monoamine oxidase) | Monoamine oxidase inhibition effect, B Type monoamine oxidase, 8 hours (B type monoamine oxidase) | Monoamine oxidase inhibition effect, B Type monoamine oxidase, 24 hours (B type monoamine oxidase) | Monoamine oxidase inhibition effect, B Type monoamine oxidase, max. (B type monoamine oxidase) | LD50 [1] [mg/kg] |
| --- | --- | --- | --- | --- | --- | --- | --- |
| CC(C)CCOc1ccc(N2CC(CN)OC2=O)cc1 (stereo not shown) [3-methylbutyl, amino] | 2 | 0 | 29 | 8 | 1 | 69 | > 2000 |
| CNCC1CN(c2ccc(OCc3ccccc3)cc2)C(=O)O1 (stereo not shown) [benzyl, N--methylamino] | 11 | 10 | 23 | 43 | 31 | 78 | > 2000 |
| NCC1CN(c2ccc(OCc3ccccc3)cc2)C(=O)O1 (stereo not shown) [benzyl, amino] | 4 | 4 | 19 | 69 | 45 | 85 | > 2000 |
| CNCC1CN(c2ccc(OCC3CCCCC3)cc2)C(=O)O1 (stereo not shown) [cyclohexylmethyl, N--methylamino] | 17 | 6 | 21 | 42 | 6 | 67 | > 2000 |
| NCC1CN(c2ccc(OCC3CCCCC3)cc2)C(=O)O1 (stereo not shown) [cyclohexylmethyl, amino] | 13 | 5 | 23 | 60 | 3 | 81 | > 2000 |
| NCC1CN(c2ccc(OCC3CCCC3)cc2)C(=O)O1 (stereo not shown) [cyclopentylmethyl, amino] | 9 | 0 | 30 | 17 | 2 | 78 | > 2000 |
| CNCC1CN(c2ccc(OCc3cccc(Cl)c3)cc2)C(=O)O1 (stereo not shown) [m-chlorobenzyl, N--methylamino] | 12 | 1 | 28 | 67 | 27 | 83 | > 2000 |
| NCC1CN(c2ccc(OCc3cccc(Cl)c3)cc2)C(=O)O1 (stereo not shown) [m-chlorobenzyl, amino] | 18 | 6 | 30 | 85 | 67 | 88 | > 2000 |
| CNCC1CN(c2ccc(OCc3ccc(F)cc3)cc2)C(=O)O1 (stereo not shown) [p-fluorobenzyl, N--methylamino] | 23 | 0 | 44 | 63 | 27 | 85 | > 2000 |
| NCC1CN(c2ccc(OCc3ccc(F)cc3)cc2)C(=O)O1 (stereo not shown) [p-fluorobenzyl, amino] | 20 | 3 | 43 | 82 | 61 | 88 | > 2000 |
